Laboratory results as given in US4027014A, “Antibiotic BN-130 substances and the production thereof” (Meiji Seika Kaisha, Ltd., priority 1974, dated 1977).

Each compound was assayed on BN-130 strain (assay: Susceptibility of the BN-130 strain to antibiotics).
Type: cell-based, Pseudomonas stutzeri
With `O=C(N[C@H](CO)[C@H](O)c1ccc([N+](=O)[O-])cc1)C(Cl)Cl` [Chloramphenicol] the Susceptibility to antibiotics was “Susceptible to a medium degree”.
For `CC1(C)S[C@@H]2[C@H](NC(=O)Cc3ccccc3)C(=O)N2[C@H]1C(=O)O` [Penicillin], the Susceptibility to antibiotics was “Resistant”.
In the case of `CN(C)[C@@H]1C(O)=C(C(N)=O)C(=O)[C@@]2(O)C(O)=C3C(=O)c4c(O)cccc4[C@@](C)(O)[C@H]3C[C@@H]12` [Tetracycline], the Susceptibility to antibiotics is reported as “Susceptible”.
With `CC1(C)S[C@@H]2[C@H](NC(=O)[C@H](N)c3ccccc3)C(=O)N2[C@H]1C(=O)O` [aminobenzylpenicillin] the Susceptibility to antibiotics was “Resistant”.
For `O=C(Cc1cccs1)N[C@@H]1C(=O)N2C(C(=O)[O-])=C(C[n+]3ccccc3)CS[C@H]12` [cephaloridine], the Susceptibility to antibiotics was “Resistant”.
`NC[C@H]1O[C@H](O[C@H]2[C@H](O)[C@@H](O[C@H]3O[C@H](CO)[C@@H](O)[C@H](N)[C@H]3O)[C@H](N)C[C@@H]2N)[C@H](O)[C@@H](O)[C@@H]1O` [kanamycin] was tested, and the Susceptibility to antibiotics was “Susceptible to a medium degree”.
`CCn1cc(C(=O)O)c(=O)c2ccc(C)nc21` [nalidixic acid] was tested, and the Susceptibility to antibiotics was “Susceptible”.
With `[H]/N=C(/N)N[C@H]1[C@H](O)[C@@H](O)[C@H](O[C@@H]2O[C@@H](C)[C@](O)(C=O)[C@H]2O[C@@H]2O[C@@H](CO)[C@H](O)[C@@H](O)[C@@H]2NC)[C@@H](N/C(N)=N\[H])[C@@H]1O` [streptomycin] the Susceptibility to antibiotics was “Susceptible to a medium degree”.
With colistin the Susceptibility to antibiotics was “Susceptible”.
With polymixin the Susceptibility to antibiotics was “Susceptible”.
